Tested on: Period1 gene
Assay: Period1 gene expression in cultured human skin fibroblastic cells (RT-PCR)
Assay type: cell-based
Settings: for Induction of expression rhythm and increase of Period1 gene expression: peak at 2 hours after stimulation, result in words
Experimental: As the cultured human fibroblastic cells, fibroblastic cells from normal human skin were purchased (Cell Application, Inc.) and used in the experiments. They were inoculated in DMEM medium supplemented with 10% FBS, 20 mM HEPES, Glutamax and antibacterial agents and cultured at 37° C. in 5% CO2. On the 6th day of culture, 50 ng/mL of cortisol or 10 μM of forskolin was added to each wells, and the samples were harvested at various times after time 0, which was defined as the time immediately after the addition of cortisol or forskolin. RNA was extracted from the cells with a commercially available RNA extraction kit, and the amounts of expression of the intended genes were measured by RT-PCR technology using commercially available PCR primers (Perfect Real Time Primer, Takara Bio). As for clock genes, amounts of expression of Period1 and Bmal1, which are involved in the core system, were determined. Similarly, the amounts of expression of a housekeeping gene RPLP0 were quantified and used as an internal standard to calculate the relative expression of the intended genes to RPLP0. […] Test substances were evaluated for the expression modulating effect on a Period gene based on the amount of gene expression at 2 hours after stimulation. To confirm the induction of expression rhythm for the Period gene, the amount of expression of the Period1 gene at 16 hours after stimulation was also determined. Fibroblastic cells from normal human skin (Cell Application, Inc.) were inoculated according to a method similar to those used above. Each test substance was added on the 6th day of culture to a final concentration of 100 ppm, and the cells were harvested 2 and 16 hours after stimulation. […] The amounts of expression of the Period1 gene were determined by RT-PCR technology using commercially available PCR primers (Perfect Real Time Primer, Takara Bio). The amounts of gene expression of a housekeeping gene RPLP0 were quantified and used as an internal standard to calculate the relative expression of the target genes with respect to RPLP0.

SMILES | Induction of expression rhythm and increase of Period1 gene expression | Relative amount of Period1 gene expression (2 hours) (test substance 100 ppm, 2 hours after stimulation, relative to RPLP0, control 0.23, *p < 0.05, **p < 0.01)
C[C@]12CCC(=O)C=C1CC[C@@H]1[C@@H]2[C@@H](O)C[C@@]2(C)[C@H]1CC[C@]2(O)C(=O)CO [cortisol, reference compound] | significantly increase amounts of gene expression of Period1 | 
C=C1CC/C=C(\C)CC[C@@H]2[C@@H]1CC2(C)C [beta-Caryophyllene] | significantly increase amounts of gene expression of Period1 | 0.44*
